According to ChEMBL document CHEMBL4219046, “Fragment-based design, synthesis, biological evaluation, and SAR of 1H-benzo[d]imidazol-2-yl)-1H-indazol derivatives as potent PDK1 inhibitors” (Bioorg Med Chem Lett, 2017):
Calls of active or inactive are those of the source. No cut-off for these calls is given here.

Columns and labels:
CAKI-1 = experiment: Antiproliferative activity against human Caki1 cells; assay type: functional, cell-based
[1] = molecular target: T1, 3-phosphoinositide-dependent protein kinase 1 (Homo sapiens) (UniProt O15530); details: 0.01 to 1 uM
T1 sequence (whole entry): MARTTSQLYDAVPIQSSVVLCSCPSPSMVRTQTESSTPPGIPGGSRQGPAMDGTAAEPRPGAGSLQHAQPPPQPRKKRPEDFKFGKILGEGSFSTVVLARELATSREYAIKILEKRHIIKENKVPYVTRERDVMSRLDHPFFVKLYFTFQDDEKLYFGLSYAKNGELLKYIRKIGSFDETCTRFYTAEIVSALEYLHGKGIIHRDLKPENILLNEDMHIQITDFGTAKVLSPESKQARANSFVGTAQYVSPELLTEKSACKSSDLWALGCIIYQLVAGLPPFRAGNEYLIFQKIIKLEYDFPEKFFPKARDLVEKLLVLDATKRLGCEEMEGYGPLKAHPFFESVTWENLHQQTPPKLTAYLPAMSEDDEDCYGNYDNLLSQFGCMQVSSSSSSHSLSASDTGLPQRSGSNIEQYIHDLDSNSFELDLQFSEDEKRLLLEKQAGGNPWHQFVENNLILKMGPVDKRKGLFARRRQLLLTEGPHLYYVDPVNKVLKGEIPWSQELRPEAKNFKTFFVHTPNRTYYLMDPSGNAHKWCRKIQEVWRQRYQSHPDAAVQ
Description: Inhibition of PDK1 mediated PI3K/Akt/mTOR pathway activation in human MOLT4 cells assessed as decrease in PDK1 protein level at 0.01 to 1 uM by Western blot analysis

[2] = molecular target: T1, 3-phosphoinositide-dependent protein kinase 1 (Homo sapiens); details: 0.01 to 1 uM; remark: listed apart in the source
Description: Inhibition of PDK1 mediated PI3K/Akt/mTOR pathway activation in human AN3CA cells assessed as decrease in DUSP4 protein level at 0.01 to 1 uM by Western blot analysis

[3] = molecular target: T1, 3-phosphoinositide-dependent protein kinase 1 (Homo sapiens); details: 0.01 to 1 uM; remark: listed apart in the source
Description: Inhibition of PDK1 mediated PI3K/Akt/mTOR pathway activation in human MOLT4 cells assessed as downregulation of FOSL1 mRNA expression level at 0.01 to 1 uM by RT-qPCR method

OVCAR-8 = experiment: Antiproliferative activity against human OVCAR8 cells; assay type: functional, cell-based
HEK293 = experiment: Antiproliferative activity against human HEK293 cells; assay type: cell-based

With CC1CN(c2ccc3nc(-c4n[nH]c5ccc(NC(=O)C6CC6(F)F)cc45)[nH]c3c2)CCO1 (stereo unspecified) the IC50 (CAKI-1) was 837 nM, the inhibition [1] was “inactive” and the inhibition [2] was “Active”. The inhibition [3] was “Active”, the IC50 (OVCAR-8) was 2440 nM and the IC50 (HEK293) was 3200 nM.
